Three compounds from article PMC11492869, “Dimerization and lysine substitution of melittin have differing effects on bacteria” (Frontiers in Pharmacology, 2024) can be followed below.

Common to all, as to type: cell-based
The subject of series [1] is Chicken red blood cells (RBCs). Briefly: Hemolysis assay. The protocol:
Chicken red blood cells (RBCs) in Alsever’s solution (RBCs, Equicell, Victoria, Australia) were diluted 1 in 20 in PBS (pH 7.4), pelleted by centrifugation, and washed three times in PBS (1,000 g, 10 min). The RBCs were counted using a cell counter (Coulter Particle Counter Z series, Beckman Coulter) and diluted to a final concentration of 2 × 10^7 cells/mL. Aliquots (100 μL) of the RBC solution were seeded into a V-bottomed 96-well plate containing 100 μL of serial dilutions (10–0.08 μM) of the AMP in PBS and incubated in a humidified atmosphere containing 5% CO2 at 37°C for 2 h. Following incubation, the RBCs were pelleted in a centrifuge (1,000 g, 10 min), and the amount of hemoglobin released in 100 μL aliquots of the supernatant was determined by measuring the absorbance at 405 nm using a microplate reader (PerkinElmer 1,420 Multilabel Counter VICTOR3). Positive and negative controls for hemolysis were taken as RBC lysed with 1% v/v Triton X-100 and RBC suspension in PBS, respectively. The percentage of hemolysis was calculated using the following formula: % Hemolysis A405 test sample−A405 negative control / A405 positive control−A405 negative controlx 100.
The percentage hemolysis was plotted against peptide concentration, and linear regression analysis was used to determine the hemolytic concentration needed to lyse 50% (HC50) of RBCs.

The subject of the next series is S. aureus ATCC 29213. Briefly: microbe, parasite or virus in culture. The note with it: 90 min incubation at 37°C, plated on LB agar 12–24 h, lowest concentration giving less than one CFU (≥99.9% reduction), mean ± SD, at least three biological repeats. The protocol:
(§1) For the antimicrobial peptide assays, a 10 mL starter culture was produced by taking single colonies from LB agar plates to inoculate in Lysogeny/Luria Broth (1% w/v Oxoid Tryptone, 0.5% w/v NaCl, 0.5% w/v Oxoid Yeast Extract, pH 7.0, Thermo Scientific Pty, Ltd., Sydney, Australia) for bacteria; S. aureus ATCC 29213 and E. coli ATCC 8739 were grown aerobically at 37°C in an orbital shaker (Minitron, Infors HT) at 200 rpm. After overnight incubation, 0.5–1.0 mL of the starter culture was used to inoculate fresh LB broth (20 mL), and its growth was monitored at 600 nm using a spectrophotometer (model Varian Cary 50 Bio UV-Vis). Bacteria were harvested during the late exponential growth phase, and CFUs/mL were determined using the growth curve data set that correlated OD600 to CFUs/mL.
(§2) Antibacterial assays were undertaken to determine the minimum inhibitory concentration (MIC), the minimum bactericidal concentration (MBC), and the level of membrane disruption of each of the antimicrobial peptides (AMPs) and multimerized AMPs. […] After the 90-min incubation period, the antimicrobial activity (MIC and MBC) was determined as follows:
(§3) The CLSI protocol was followed to determine MBC. After incubation, bacteria were serially diluted (1:10) in PBS, plated on LB agar, and incubated for 12–24 h at 37°C; then, the CFUs were quantified. […]

Series [2] relates to H4IIE cells. The experiment in a line: Cytotoxicity (cell lysis), LDH release assay. The note with it: for TI (cell lysis): H4IIE, LD50/MBC50. The protocol:
(§4) To determine toxicity toward mammalian cells, 1 × 10^4 cells/well of HEK-293 (ATCC CRL-1573TM) or H4IIE in a total volume of […] in media (Eagle’s Minimum Essential Medium (EMEM) supplemented with 10% v/v fetal bovine serum, 5% v/v L-glutamine and 5% v/v penicillin/streptomycin) were seeded into 96-well plates and cultured at 37°C in a 5% CO2 incubator for 16–20 h. When cells were ≥90% confluent, the 100 µL media was removed and replaced with 50 μL serial dilutions of the AMP in media (final concentration 20–0.5 μM) and cultured at 37°C in a 5% CO2 incubator for 90 min. From each well, 50 µL was transferred to a new plate. To the 50 μL, 50 µL of lactate dehydrogenase (LDH) solution (CytoTox 96® Non-Radioactive Cytotoxicity Assay kit, Promega) was added to each well and incubated for a further 30 min at room temperature and protected from light. Cell death was determined by measuring absorbance at 490 nm using a microplate reader (PerkinElmer 1,420 Multilabel Counter VICTOR3). Positive and negative controls for inhibition were taken as cells incubated with lysis solution (CytoTox 96® Non-Radioactive Cytotoxicity Assay kit, Promega) and cells incubated in media alone, respectively. The background absorbance of media alone was subtracted from the sample absorbance, and the percentage of inhibition was calculated using the following formula: % Cytotoxicity=A490 test sample−A490 negative control/A490 positive control−A490 negative control×100.
(§5) The percentage of lysis was plotted against peptide concentration, and linear regression analysis was used to determine the AMP concentration needed to lyse 50% (LD50) of the cells.

The subject of series [3] is HEK-293 (ATCC CRL-1573) cells. The experiment in a line: Cytotoxicity (cell lysis), LDH release assay. The note with it: for TI (cell lysis): HEK293, LD50/MBC50. As to the method: as §4, §5
(Release of lactate dehydrogenase indicates damage to the cell membrane.)

The subject of series [4] is H4IIE cells. The experiment in a line: Inhibition of cell proliferation, MTS assay. The note with it: for TI (cell proliferation): H4IIE, IC50/MIC50. As to the method: (§6) To determine the inhibition of cell proliferation, 20 μL of 3-(4,5-dimethylthiazol-2-yl)-5-(3-carboxymethoxyphenyl)-2-(4-sulfophenyl)-2H-tetrazolium (MTS) solution (CellTiter 96 AQueous Non-Radioactive Cell Proliferation Assay kit, Promega) was added to the remaining 100 µL from the toxicity assay, and the plates were incubated for a further 1 h at 37°C in a 5% CO2 incubator protected from light. Cell proliferation was determined by measuring absorbance at 490 nm using a microplate reader (PerkinElmer 1,420 Multilabel Counter VICTOR3). Positive and negative controls for inhibition were taken as cells incubated with lysis solution (CytoTox 96® Non-Radioactive Cytotoxicity Assay kit, Promega) and cells incubated in media alone, respectively. The background absorbance of media alone was subtracted from the samples, and the percentage of inhibition was calculated using the following formula: % Inhibition=A490 test sample−A490 negative control/A490 positive control−A490 negative control×100.
(§7) The percentage of inhibition was plotted against peptide concentration, and linear regression analysis was used to determine the AMP concentration needed to inhibit 50% (IC50) of cell growth.

For series [5], the system named is HEK-293 (ATCC CRL-1573) cells. The experiment in a line: Inhibition of cell proliferation, MTS assay. The note with it: for TI (cell proliferation): HEK293, IC50/MIC50. The protocol: as §6, §7
(In general: Tetrazolium assays rely on reduction of a dye to a coloured formazan, in cell work by metabolically active cells.)

Series [6] concerns E. coli ATCC 8739. As to conditions: cation-adjusted MHB, 90 min incubation at 37°C, plated on LB agar 12–24 h, lowest concentration giving less than one CFU (≥99.9% reduction), mean ± SD, at least three biological repeats. The protocol: as §1, §2, §3
In series [7] the test system is E. coli ATCC 8739. The note with it: cation-adjusted MHB, 1 × 10^5 cells/well, 90 min incubation with peptide at 37°C, then growth monitored 20 h at OD630, Lambert and Pearson analysis, mean ± SD, at least three biological repeats. The protocol: as §1
Antibacterial assays were undertaken to determine the minimum inhibitory concentration (MIC), the minimum bactericidal concentration (MBC), and the level of membrane disruption of each of the antimicrobial peptides (AMPs) and multimerized AMPs. For each bacterium, a stock solution (2 × 10^6 cells/mL) in cation-adjusted Mueller Hinton Broth (MHB) was made, and an aliquot was incubated with AMPs within 15 min from viable cell count and stock preparation. […] After the 90-min incubation period, the antimicrobial activity (MIC and MBC) was determined as follows: […]

Values after ≈ are worked out from the molar mass of the structure shown. Read-outs that look alike come from different tables or passages of the source.

As to `CC[C@H](C)[C@H](NC(=O)CN)C(=O)NCC(=O)N[C@@H](C)C(=O)N[C@H](C(=O)N[C@@H](CC(C)C)C(=O)N[C@@H](CCCCN)C(=O)N[C@H](C(=O)N[C@@H](CC(C)C)C(=O)N[C@H](C(=O)N[C@H](C(=O)NCC(=O)N[C@@H](CC(C)C)C(=O)N1CCC[C@H]1C(=O)N[C@@H](C)C(=O)N[C@@H](CC(C)C)C(=O)N[C@H](C(=O)N[C@@H](CO)C(=O)N[C@@H](Cc1c[nH]c2ccccc12)C(=O)N[C@H](C(=O)N[C@@H](CCCCN)C(=O)N[C@@H](CCCNC(=N)N)C(=O)N[C@@H](CCCCN)C(=O)N[C@@H](CCCNC(=N)N)C(=O)N[C@@H](CCC(N)=O)C(=O)N[C@@H](CCC(N)=O)C(N)=O)[C@@H](C)CC)[C@@H](C)CC)[C@@H](C)O)[C@@H](C)O)C(C)C)C(C)C` [1. Melittin, Melittin], the HC50 (as a rule, the concentration giving 50% haemolysis) in series [1] (chicken RBCs in PBS pH 7.4, 2 × 10^7 cells/mL stock, 10–0.08 μM, 2 h at 37°C, absorbance 405 nm, 1% Triton X-100 positive control, mean ± SD, at least three biological repeats) was 0.59 ± 0.04 µM. Moreover, the “TI (hemolysis)” value in series [1] (chicken RBCs, HC50/MBC50, MBC50 toward S. aureus 29213) came out at 0.67. The “TI (haemolysis)” value in series [1] (chicken RBCs, HC50/MBC50, MBC50 towards E. coli 8729) came out at 0.14. Also, the values for the MBC against S. aureus ATCC 29213 (cation-adjusted MHB) and with E. coli ATCC 8739 [6] were 1.76 ± 0.76 µM (≈ 5.01 µg/mL) and 8.67 ± 0.93 µM (≈ 24.7 µg/mL), respectively. Moreover, the LD50 in the series with H4IIE cells [2] (H4IIE cells, LDH release, 90 min exposure at 37°C, 20–0.5 μM, concentration lysing 50% of cells by linear regression, mean ± SD, at least three biological repeats) is 1.79 ± 0.95 µM; in series [3] (HEK293 cells, LDH release, 90 min exposure at 37°C, 20–0.5 μM, concentration lysing 50% of cells by linear regression, mean ± SD, at least three biological repeats), 0.75 ± 0.21 µM. The “TI (cell lysis)” value with H4IIE cells [2] (MBC50 toward S. aureus 29213) is listed as 2.05; in the series with H4IIE cells [2] (MBC50 towards E. coli 8729), 0.41; in series [3] (MBC50 toward S. aureus 29213), 0.85; in series [3] (MBC50 towards E. coli 8729), 0.17. Besides, the IC50 (in general, the concentration at which inhibition is half-maximal) in the series on H4IIE cells [4] (H4IIE cells, MTS proliferation assay after 90 min exposure, 1 h MTS, linear regression, mean ± SD, at least three biological repeats) came to 2.88 ± 0.08 µM; in series [5] (HEK293 cells, MTS proliferation assay after 90 min exposure, 1 h MTS, linear regression, mean ± SD, at least three biological repeats), 9.47 ± 3.63 µM. The “TI (cell proliferation)” value with H4IIE cells [4] (MIC50 toward S. aureus 29213) was determined as 4.01; in the series with H4IIE cells [4] (MIC50 towards E. coli 8729), 0.76; in series [5] (MIC50 toward S. aureus 29213), 13.18; in series [5] (MIC50 towards E. coli 8729), 2.49. Besides, the minimum inhibitory concentration (MIC) (as a rule, the smallest concentration in the dilution series that meets the test's criterion for growth inhibition) in the series on E. coli ATCC 8739 [7] came to 6.89 ± 0.72 µM (≈ 19.6 µg/mL).
As to `CN[C@H](CC(C)C)C(=O)N[C@H]1C(=O)N[C@@H](CC(N)=O)C(=O)N[C@H]2C(=O)N[C@H]3C(=O)N[C@H](C(=O)N[C@H](C(=O)O)c4cc(O)cc(O)c4-c4cc3ccc4O)[C@H](O)c3ccc(c(Cl)c3)Oc3cc2cc(c3O[C@@H]2O[C@H](CO)[C@@H](O)[C@H](O)[C@H]2O[C@H]2C[C@](C)(N)[C@H](O)[C@H](C)O2)Oc2ccc(cc2Cl)[C@H]1O` [Vancomycin], in the series with S. aureus ATCC 29213 (Staphylococcus aureus, ATCC29213, cation-adjusted MHB, read-out: MBC), the MBC was determined as 1.61 ± 0.44 µM (≈ 2.33 µg/mL).
On to Gentamycin, for which the MBC against E. coli ATCC 8739 [6] is 3.3 ± 0.78 µM. In the series on E. coli ATCC 8739 [7], this compound registered an MIC of 2.27 ± 0.33 µM.
